Values quoted from earlier work, collected in PubChem BioAssay AID1259409 (Chemical Carcinogenesis Research Information System (CCRIS), 2018).

Test system: rodent chemically induced tumor inhibition, incidence and multiplicity
Assay: CCRIS tumor inhibitor studies

For `CC1=C(/C=C/C(C)=C/C=C/C(C)=C\C(=O)NCCCCO)C(C)(C)CCC1`, which “tumour outcome (control, treated, inhibition, significance)” value (Carcinogen: N-BUTYL-N-(4-HYDROXYBUTYL)NITROSAMINE, 3817-11-6, Dose [Inhibitor]: 1.5 MMOL/KG DIET DAILY FOR 133 D STARTING ONE WK AFTER THE FINAL CARCINOGEN DOSE (STUDY DURATION: 190 D), Route [Inhibitor]: ORAL, Species: MOUSE, Strain/Sex: BDF/MALE, Target Tissue: Type of Lesion: URINARY BLADDER: TRANSITIONAL CELL CARCINOMA, Dose [Carcinogen]: 7.5 MG 1/WK FOR 8 WK, Promoter: NONE USED) is on record?
The value was 21/100 (21%), 17/100 (17%), 20%, not significant.

What about the “tumour outcome (control, treated, inhibition, significance)” value (Carcinogen: N-BUTYL-N-(4-HYDROXYBUTYL)NITROSAMINE, 3817-11-6, Dose [Inhibitor]: 1.5 MMOL/KG IN DIET FOR 133 D STARTING 1 WK AFTER LAST CARCINOGEN DOSE (STUDY DURATION: 190 D), Route [Inhibitor]: ORAL, Species: MOUSE, Strain/Sex: DBF1/MALE, Target Tissue: Type of Lesion: URINARY BLADDER: TRANSITIONAL CELL CARCINOMA, Dose [Carcinogen]: 7.5 MG 1/WK FOR 8 WK, Promoter: NONE USED) of the same compound?
The value was 21/100 (21%), 17/100 (17%), 19%, not significant.

For `CCCCCCCCCCCCCCCCCCOC1=C(O)C([C@@H](O)CO)OC1=O` (some centres undefined), which “tumour outcome (control, treated, inhibition, significance)” value (Carcinogen: NONE USED, Dose [Inhibitor]: 0, 0.1% IN DIET FOR DURATION OF STUDY (STUDY DURATION: 16 MO), Route [Inhibitor]: ORAL, Species: MOUSE, Strain/Sex: C3H/HENCRJ/MALE, Target Tissue: Type of Lesion: LIVER: ADENOMA, Promoter: NONE USED) is on record?
Its value is 17/43 (40%), 20/39 (51%), -28%, not calculated.

What about the “tumour outcome (control, treated, inhibition, significance)” value (Carcinogen: NONE USED, Dose [Inhibitor]: 0, 0.1% IN DIET FOR DURATION OF STUDY (STUDY DURATION: 16 MO), Route [Inhibitor]: ORAL, Species: MOUSE, Strain/Sex: C3H/HENCRJ/MALE, Target Tissue: Type of Lesion: LIVER: CARCINOMA, Promoter: NONE USED) of the same compound?
The value was 11/43 (26%), 2/39 (5%), 81%, p<0.05.

What does the source list for `C=C1/C(=C\C=C2/CCC[C@]3(C)[C@@H]([C@H](C)CC[C@@H](CC)C(C)C)CC[C@@H]23)C[C@@H](O)C[C@@H]1O`?
tumour outcome (control, treated, inhibition, significance) (Carcinogen: 7,12-DIMETHYLBENZ[A]ANTHRACENE (57-97-6), Dose [Inhibitor]: 40 MG/KG DIET 1 WK AFTER CARCINOGEN TO END, Route [Inhibitor]: DIET, Species: RAT, Strain/Sex: SPRAGUE-DAWLEY/FEMALE, Target Tissue: Type of Lesion: MAMMARY GLAND: TUMOR, Dose [Carcinogen]: 15 MG AT 50 D OF AGE, ONCE): 85%, 50%, 41%, p<0.05; tumour outcome (control, treated, inhibition, significance) (Carcinogen: 7,12-DIMETHYLBENZ[A]ANTHRACENE (57-97-6), Dose [Inhibitor]: 40 MG/KG DIET 2 WKS BEFORE CARCINOGEN AND 1 WK AFTER CARCINOGEN, Route [Inhibitor]: DIET, Species: RAT, Strain/Sex: SPRAGUE-DAWLEY/FEMALE, Target Tissue: Type of Lesion: MAMMARY GLAND: TUMOR, Dose [Carcinogen]: 15 MG AT 50 D OF AGE, ONCE): 85%, 70%, 18%, not significant; tumour outcome (control, treated, inhibition, significance) (Carcinogen: 7,12-DIMETHYLBENZ[A]ANTHRACENE (57-97-6), Dose [Inhibitor]: 40 MG/KG DIET 2 WKS BEFORE CARCINOGEN TO END, Route [Inhibitor]: DIET, Species: RAT, Strain/Sex: SPRAGUE-DAWLEY/FEMALE, Target Tissue: Type of Lesion: MAMMARY GLAND: TUMOR, Dose [Carcinogen]: 15 MG AT 50 D OF AGE, ONCE): 85%, 50%, 41%, not calculated; outcome (Carcinogen: AZOXYMETHANE (25843-45-2), Dose [Inhibitor]: 25 UG/KG DIET 2 WKS AFTER CARCINOGEN TO END (STUDY DURATION: 10 WKS), Route [Inhibitor]: DIET, Species: MOUSE, Strain/Sex: CF-1, Target Tissue: Type of Lesion: COLON: TOTAL ABERRANT CRYPT FOCI (SURROGATE FOR COLON TUMOR), Dose [Carcinogen]: 10 MG/KG BW WEEKLY FOR 2 WKS (STUDY DURATION: 10 WKS)): 9.6, 2.0, 79%, not calculated; outcome (Carcinogen: AZOXYMETHANE (25843-45-2), Dose [Inhibitor]: 25 UG/KG DIET 2 WKS BEFORE CARCINOGEN TO 2 WKS AFTER (STUDY DURATION: 10 WKS), Route [Inhibitor]: DIET, Species: MOUSE, Strain/Sex: CF-1, Target Tissue: Type of Lesion: COLON: TOTAL ABERRANT CRYPT FOCI (SURROGATE FOR COLON TUMOR), Dose [Carcinogen]: 10 MG/KG BW WEEKLY FOR 2 WKS (STUDY DURATION: 10 WKS)): 9.6, 2.8, 71%, not calculated; outcome (Carcinogen: AZOXYMETHANE (25843-45-2), Dose [Inhibitor]: 25 UG/KG DIET 2 WKS BEFORE CARCINOGEN TO END (STUDY DURATION: 10 WKS), Route [Inhibitor]: DIET, Species: MOUSE, Strain/Sex: CF-1, Target Tissue: Type of Lesion: COLON: TOTAL ABERRANT CRYPT FOCI (SURROGATE FOR COLON TUMOR), Dose [Carcinogen]: 10 MG/KG BW WEEKLY FOR 2 WKS (STUDY DURATION: 10 WKS)): 9.6, 1.8, 81%, not calculated; outcome (Carcinogen: AZOXYMETHANE (25843-45-2), Dose [Inhibitor]: 25 UG/KG DIET 7 D BEFORE CARCINOGEN TO END OF STUDY, Route [Inhibitor]: DIET, Species: MOUSE, Strain/Sex: CF-1, Target Tissue: Type of Lesion: COLON: ABERRANT CRYPT FOCI (SURROGATE FOR COLON TUMOR), Dose [Carcinogen]: 10 MG/KG BW WEEKLY FOR 2 WKS): 29%, 1.4, 95%, p<0.001; outcome (Carcinogen: N-METHYL-N-NITROSOUREA ( 684-93-5), Dose [Inhibitor]: 0, 25, 50 UG/KG DIET 2 WKS BEFORE CARCINOGEN CONTINUING FOR 120 D (STUDY DURATION: 120 D), Dose [Inhibitor]: 0, 25, 50 UG/KG DIET 2 WKS BEFORE CARCINOGEN CONTINUING FOR 120 D (STUDY DURATION: 120 D), Route [Inhibitor]: DIET, Species: RAT, Strain/Sex: SPRAGUE-DAWLEY/FEMALE, Target Tissue: Type of Lesion: MAMMARY GLAND: TUMOR, Dose [Carcinogen]: 50 MG/KG BW ONCE): 80%, 53%, 34%, not calculated; 47%, 41%, not calculated; tumour outcome (control, treated, inhibition, significance) (Carcinogen: N-METHYL-N-NITROSOUREA, 684-93-5, Dose [Inhibitor]: 0, 25 UG/KG DIET AT 65 D OF AGE FOR THE DURATION OF THE STUDY (STUDY DURATION: 120 D), Route [Inhibitor]: ORAL, Species: RAT, Strain/Sex: SPRAGUE-DAWLEY, Target Tissue: Type of Lesion: MAMMARY GLAND: TUMOR, Dose [Carcinogen]: 50 MG/KG BW ONCE AT 80 D OF AGE, Promoter: NONE): 12/15 (80%), 8/15 (53%), 33%, not significant; tumour outcome (control, treated, inhibition, significance) (Carcinogen: N-METHYL-N-NITROSOUREA, 684-93-5, Dose [Inhibitor]: 0, 50 UG/KG DIET AT 65 D OF AGE FOR THE DURATION OF THE STUDY (STUDY DURATION: 120 D), Route [Inhibitor]: ORAL, Species: RAT, Strain/Sex: SPRAGUE-DAWLEY, Target Tissue: Type of Lesion: MAMMARY GLAND: TUMOR, Dose [Carcinogen]: 50 MG/KG BW ONCE AT 80 D OF AGE, Promoter: NONE): 12/15 (80%), 7/15 (47%), 41%, p=0.03
